Results: patent US7358064B2, “Kits for measuring cellular transmembrane potential changes” (Molecular Devices Corporation, priority 2001, dated 2008)
pEC50: −log10 of the molar value.

Tests used:
[1] = target: T1, purinergic P2X2 ligand-gated ion channel (Homo sapiens, UniProt Q9UBL9); experiment: ATP dose response in FLIPR membrane potential assay with DiSBAC1(3); format: cell-based; conditions: ATP dose response in P2X2 cells loaded with DiSBAC1(3); worded as 'should be approximately'
T1 construct: expressed in transfected cells; host or cells: 1321N1 astrocytoma cells
T1 sequence (Q9UBL9 1-471): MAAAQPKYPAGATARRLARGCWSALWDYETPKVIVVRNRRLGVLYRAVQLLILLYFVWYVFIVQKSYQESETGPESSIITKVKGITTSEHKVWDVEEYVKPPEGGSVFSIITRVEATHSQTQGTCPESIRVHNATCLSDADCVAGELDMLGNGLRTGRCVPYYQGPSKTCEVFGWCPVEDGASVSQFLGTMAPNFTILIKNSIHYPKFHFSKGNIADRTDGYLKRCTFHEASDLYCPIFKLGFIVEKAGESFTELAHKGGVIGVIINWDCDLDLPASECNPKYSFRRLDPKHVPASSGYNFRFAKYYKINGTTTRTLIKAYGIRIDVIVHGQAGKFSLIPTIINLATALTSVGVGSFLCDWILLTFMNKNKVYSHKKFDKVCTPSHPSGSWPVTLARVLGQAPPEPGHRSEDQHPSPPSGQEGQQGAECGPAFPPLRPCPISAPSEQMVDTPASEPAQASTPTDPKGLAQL

[2] = format: physicochemical; conditions: compared with the other oxonol dyes
Method: (§1) DiSBAC1(3), DiSBAC2(3), DiSBAC3(3), DiSBAC4(3), DiBAC1(3) and DiBAC4(3) are dissolved in DMSO (3 mM). The DMSO stock solutions are respectively partitioned in 1:1 octanol/water mixture. The concentrations of the oxonol dyes in octanol and water layers are determined by absorption spectra.

[3] = system: P2X2 cells; experiment: FLIPR membrane potential assay, fluorescence response of dyes in P2X2 cells; format: cell-based; conditions: for Fluorescence enhancement by 10 μM ATP stimulation (in folds) / Response speed: P2X2 cells, FLIPR; for Response speed: ATP stimulation; for Response to membrane potential change (speed, in words): compared with other DiBAC/DiSBAC dyes; for Signal strength: compared with other members of the DiBAC and DiSBAC family, FLIPR and other fluorescence devices
Text: This specific example illustrates how to use DiSBA1(3) in P2X2 cells in combination with the FLIPR™ fluorescent imaging plate reader sold by Molecular Devices Corp. of Sunnyvale, Calif. P2X2 cells are 1321 N1 astrocytoma cells transfected to overexpress the purinergic P2X2 ligand-gated ion channel. P2X2 belongs to a class of purinergic ion channels that pass calcium and sodium in response to purine, including adenosine 5′-triphosphate (ATP). P2X2 cells are propagated and maintained in DME (high glucose), 10% FCS, 1× Pen/Strep and 2 mM L-glutamine. Doubling time is approximately 36 hours. P2X2 cells should be split at a 1 to 2 ratio upon confluence. The cells should be carried for no more than 20 passages. When approaching this limit, a new frozen vial of cells should be resurrected. Following is a typical kit procedure: • 1. Plate 40,000 P2X2 cells in 100 μL per well for 96 well plates or 10,000 P2X2 cells in 25 μL per well for 384 well plates for overnight.
2. Prepare 1× Loading Buffer. • 2.1 To prepare the 1× Assay Buffer, pipette 10 mL of 10× Reagent Buffer (1× Hanks' Balance Saline Solution+20 mM HPEPES, pH 7.40) and dilute in 90 mL of distilled water. Adjust pH to 7.4 using 1.0 N NaOH and/or 1.0 N HCl. • 2.2 To prepare 10 mM stock solution of DiSBAC1(3), dissolve 3.8 mg DiSBAC1(3) in 1 mL DMSO • 2.3 To prepare 10% pluronic acid, dissolve 400 mg pluronic acid in 4 mL water. Heat to 37° C. to complete dissolution. • 2.4 To prepare 1× Loading Buffer, add 30 μL of stock DiSBAC1(3), 8 μL 10% pluronic acid, and 20.0 mg DB71 in the 1× FLIPR assay buffer. • 3. Load Cells with 1× Loading Buffer • 4. Remove cell plates from the incubator • 5. Add 100 μL of 1× Loading Buffer per well of 96-well plates or 25 μL per well of 384-well plates. • 6. Incubate plates at 37° C. for 30 minutes. • 7. Run the FLIPR Membrane Potential Assay • 7.1 Make 5× compound plate prior to running the FLIPR assay. Dissolve 27.5 mg of ATP (Sigma Cat# A3377) in 1 mL of sterile water to make a 50 mM stock solution. […] Choose p2x2.fcf for experimental setup in the FLIPR software. Set up the appropriate experiment parameters. • 7.3 After incubation, transfer the plates directly to FLIPR and begin the Membrane Potential Assay. • 8. Run FLIPR and perform data analysis.
DiSBAC1(3), DiSBAC2(3), DiSBAC3(3), DiSBAC4(3), DiBAC1(3) and DiBAC4(3) are dissolved in DMSO (1 mM). The stock solutions are respectively used to assay membrane potential changes in the P2X2 cells in combination with FLIPR™ as described in Example 2.

[4] = Octanol/water partition of DiBAC and DiSBAC dyes, read by absorption spectra; format: physicochemical; conditions: for Absorbance in Octanol / Absorbance in Water: 3 mM DMSO stock partitioned in 1:1 octanol/water; for Absorbance in Octanol: octanol layer; for Absorbance in Water: water layer; for Absorbance in Water/Absorbance in Octanol: 1:1 octanol/water partition; for Relative Values: water/octanol ratio relative to DiBAC1(3) (DiBAC dyes) or DiSBAC1(3) (DiSBAC dyes)
Method: as §1

[5] = system: PC12; experiment: DiSBAC1(3) as fluorescent indicator of transmembrane potential depolarization of PC12 cells; format: cell-based, rat; conditions: 75 mM potassium gluconate, 2.5 μM dye, 200 μM Direct Blue 71
[6] = system: voltage-gated sodium channels; format: cell-based, rat

| SMILES | pEC50 [1] | Water solubility [2] | Fluorescence enhancement by 10 μM ATP stimulation (in folds) [3] [folds] | Response speed [3] | Response to membrane potential change (speed, in words) [3] | Response to membrane potential change (speed, in words) ([3]; listed as DiBAC1 (3)) | Signal strength [3] | Absorbance in Octanol [4] | Absorbance in Water [4] | Absorbance in Water/Absorbance in Octanol [4] | Relative Values [4] | Fluorescence change on cell depolarization [5] | Sensitivity to membrane potential change ([3]; compared with the rest of the DiSBACs) | Hydrophilicity ([4]; compared with the other oxonol dyes) | Change in membrane potential (fluorescence increase) upon potassium addition [6] |
| --- | --- | --- | --- | --- | --- | --- | --- | --- | --- | --- | --- | --- | --- | --- | --- |
| Nc1ncnc2c1ncn2[C@@H]1O[C@H](COP(=O)(O)OP(=O)(O)OP(=O)(O)O)[C@@H](O)[C@H]1O [ATP, adenosine 5′-triphosphate] | 7.00 to 8.00 | – | – | – | – | – | – | – | – | – | – | – | – | – | – |
| CN1C(=O)C(=CC=Cc2c(O)n(C)c(=O)n(C)c2=O)C(=O)N(C)C1=O [DiBAC1(3)] | – | greater water solubility | 3.7 | fast | much faster response | faster response | stronger signal | 0.3104 | 1.297 | 4.179 | 1 | – | – | – | – |
| CCCCN1C(=O)C(=CC=Cc2c(O)n(CCCC)c(=O)n(CCCC)c2=O)C(=O)N(CCCC)C1=O [DiBAC4(3)] | – | – | 3.3 | slow | – | – | – | 2.854 | 0.002501 | 0.00088 | 0.00021 | – | – | – | – |
| CN1C(=O)C(=CC=Cc2c(O)n(C)c(=S)n(C)c2=O)C(=O)N(C)C1=S [DiSBAC1(3), Bis-(1,3-dimethylthiobarbituric acid)trimethine oxonol] | – | – | 108.5 | fast | faster response | – | stronger signal | 0.9126 | 0.06147 | 0.0674 | 1 | increased DiSBAC1(3) fluorescence | much more sensitive | much more hydrophilic | – |
| CCN1C(=O)C(=CC=Cc2c(O)n(CC)c(=S)n(CC)c2=O)C(=O)N(CC)C1=S [DiSBAC2(3)] | – | – | 38.6 | moderate | – | – | – | 2.187 | 0.01143 | 0.0052 | 0.078 | – | – | – | – |
| CCCN1C(=O)C(=CC=Cc2c(O)n(CCC)c(=S)n(CCC)c2=O)C(=O)N(CCC)C1=S [DiSBAC3(3)] | – | – | 14.5 | slow | – | – | – | 4.331 | 0.002256 | 0.0005 | 0.0077 | – | – | – | – |
| CCCCN1C(=O)C(=CC=Cc2c(O)n(CCCC)c(=S)n(CCCC)c2=O)C(=O)N(CCCC)C1=S [DiSBAC4(3)] | – | – | 2.3 | slow | – | – | – | 3.226 | 0.003318 | <0.0010 | <0.0077 | – | – | – | – |
| NC1=N[C@H](O)[C@H]2[C@H]3O[C@]4(O)O[C@@H]([C@@H](O)[C@@]2(N1)[C@@H]4O)[C@]3(O)CO [TTX, tetrodotoxin] | – | – | – | – | – | – | – | – | – | – | – | – | – | – | smaller increase in fluorescence |
